Results reported in paper PMC9694334, “Synthesis and Biological Evaluation of a Fused Structure of Indolizine and Pyrrolo[1,2-c]pyrimidine: Identification of Its Potent Anticancer Activity against Liver Cancer Cells” (Pharmaceuticals, 2022).

Assays:
[1] = tested on: hepatocellular carcinoma; design: method as in PMID 10951336, PMID 11408798, PMID 11462924, PMID 12115351, PMID 14612894; details: gemcitabine alone; phase 2 clinical trials; cited from earlier work
[2] = tested on: caspase-3; test: Caspase-3 activity assay in Huh7 cells; assay type: cell-based; details: 20 μM Ac-DEVD-CHO, Figure 4D
Method: (§1) HepG2 and Huh7 cells were plated in 96-black-well plate to about 40% confluence, and then 5r was treated for 24 h. To assess activity of caspase-3, the growth medium was changed with 100 μL of PBS containing 1 μM caspase-3 substrate, NucView 488, and incubated at room temperature. After 20 min, 1 μM Hoechst 33342 was treated to stain the cells. Activity of caspase-3 was suppressed by Ac-DEVD-CHO, a selective caspase-3 inhibitor. FLUOstar Omega microplate reader (BMG Labtech, Ortenberg, Germany) was used to assess the fluorescence of NucView 488 and Hoechst, and Lionheart FX Automated Microscope (BioTek, Winooski, VT, USA) was used to acquire the fluorescence microscopy images.
(§2) Figure 4 Effect of 5r on activity of caspase-3 and cleavage of PARP in HepG2 and Huh7 cells. (A,B) HepG2 and Huh7 cells were incubated with 3 µM 5r for 24 h and then incubated with 1 µM caspase-3 substrate (green) and 1 µM Hoechst 33,342 (blue) for 20 min before image acquisition. (C,D) Cells were cultured with 5r at the indicated concentrations for 24 h and then 1 μM caspase-3 substrate was treated for 20 min. Caspase-3 was inhibited by 20 μM Ac-DEVD-CHO (mean ± S.D., n = 3). (E,F) Cells were cultured with 5r at the indicated concentrations for 24 h, and expression level of PARP, cleaved-PARP and β-actin were measured by Western blot analysis. […]

[3] = tested on: caspase-3; test: Caspase-3 activity assay in HepG2 cells; assay type: cell-based; details: 20 μM Ac-DEVD-CHO, Figure 4C
Method: as §1, §2

Compound	Response rate [1]	Inhibition of 5r-increased caspase-3 activity in Huh7 cells [2]	Inhibition of 5r-increased caspase-3 activity in HepG2 cells [3]
Nc1ccn([C@@H]2O[C@H](CO)[C@@H](O)C2(F)F)c(=O)n1 [gemcitabine]	0–20%		
Ac-DEVD-CHO [reference compound]		fully inhibited	fully inhibited
